Results as given in the kinase profiling compilation of Christmann-Franck et al. (2016).

Columns and labels:
Experiment in all cases: KINOMEscan competition binding
Conditions in all cases: compound 10.0 µM
[1] = molecular target: BRAF (human) (UniProt P15056)
[2] = molecular target: BTK (human) (UniProt Q06187)
[3] = molecular target: CDK13 (human) (UniProt Q14004)
[4] = molecular target: CDK4 CCND1 (human) (UniProt P11802+P24385)
[5] = molecular target: CDKL3 (human) (UniProt Q8IVW4)
[6] = molecular target: CDKL5 (human) (UniProt O76039)
[7] = molecular target: CRK2 (P.falciparum) (UniProt P61075)
[8] = molecular target: DYRK1A (human) (UniProt Q13627)
[9] = test system: EGFR (human), P00533 [746-750 del]
[10] = test system: EGFR (human), P00533 [P753S; 747-752 del]
[11] = test system: FLT3 (human), P36888 [K663Q]
[12] = molecular target: GRK7 (human) (UniProt Q8WTQ7)
[13] = molecular target: IRAK4 (human) (UniProt Q9NWZ3)
[14] = molecular target: MAK (human) (UniProt P20794)
[15] = molecular target: MAP2K5 (human) (UniProt Q13163)
[16] = molecular target: MAP3K15 (human) (UniProt Q6ZN16)
[17] = molecular target: MYLK3 (human) (UniProt Q32MK0)
[18] = molecular target: NEK4 (human) (UniProt P51957)
[19] = molecular target: NIM1 (human) (UniProt Q8IY84)
[20] = molecular target: OXSR1 (human) (UniProt O95747)
[21] = test system: PIK3CA (human), P42336 [C420R]
[22] = test system: PIK3CA (human), P42336 [H1047Y]
[23] = test system: PIK3CA (human), P42336 [I800L]
[24] = test system: PIK3CA (human), P42336 [Q546K]
[25] = molecular target: PIP4K2C (human) (UniProt Q8TBX8)
[26] = molecular target: PKN3 (M.tuberculosis) (UniProt Q6P5Z2)
[27] = molecular target: PLK2 (human) (UniProt Q9NYY3)
[28] = molecular target: PRKCI (human) (UniProt P41743)
[29] = molecular target: RPS6KB1 (human) (UniProt P23443)
[30] = molecular target: SBK1 (human) (UniProt Q52WX2)
[31] = molecular target: SGK3 (human) (UniProt Q96BR1)
[32] = molecular target: STK32A (human) (UniProt Q8WU08)
[33] = molecular target: STK38 (human) (UniProt Q15208)
[34] = molecular target: TBK1 (human) (UniProt Q9UHD2)
[35] = molecular target: DDR1 (human) (UniProt Q08345)
[36] = molecular target: DYRK2 (human) (UniProt Q92630)
[37] = test system: EGFR (human), P00533 [G719S]
[38] = test system: EGFR (human), P00533 [L861Q]
[39] = molecular target: KIT (human) (UniProt P10721)
[40] = test system: KIT (human), P10721 [V559D/T670I]
Chain of KIT (human), P10721 [V559D/T670I] (P10721 whole entry V559D/T670I, looked up): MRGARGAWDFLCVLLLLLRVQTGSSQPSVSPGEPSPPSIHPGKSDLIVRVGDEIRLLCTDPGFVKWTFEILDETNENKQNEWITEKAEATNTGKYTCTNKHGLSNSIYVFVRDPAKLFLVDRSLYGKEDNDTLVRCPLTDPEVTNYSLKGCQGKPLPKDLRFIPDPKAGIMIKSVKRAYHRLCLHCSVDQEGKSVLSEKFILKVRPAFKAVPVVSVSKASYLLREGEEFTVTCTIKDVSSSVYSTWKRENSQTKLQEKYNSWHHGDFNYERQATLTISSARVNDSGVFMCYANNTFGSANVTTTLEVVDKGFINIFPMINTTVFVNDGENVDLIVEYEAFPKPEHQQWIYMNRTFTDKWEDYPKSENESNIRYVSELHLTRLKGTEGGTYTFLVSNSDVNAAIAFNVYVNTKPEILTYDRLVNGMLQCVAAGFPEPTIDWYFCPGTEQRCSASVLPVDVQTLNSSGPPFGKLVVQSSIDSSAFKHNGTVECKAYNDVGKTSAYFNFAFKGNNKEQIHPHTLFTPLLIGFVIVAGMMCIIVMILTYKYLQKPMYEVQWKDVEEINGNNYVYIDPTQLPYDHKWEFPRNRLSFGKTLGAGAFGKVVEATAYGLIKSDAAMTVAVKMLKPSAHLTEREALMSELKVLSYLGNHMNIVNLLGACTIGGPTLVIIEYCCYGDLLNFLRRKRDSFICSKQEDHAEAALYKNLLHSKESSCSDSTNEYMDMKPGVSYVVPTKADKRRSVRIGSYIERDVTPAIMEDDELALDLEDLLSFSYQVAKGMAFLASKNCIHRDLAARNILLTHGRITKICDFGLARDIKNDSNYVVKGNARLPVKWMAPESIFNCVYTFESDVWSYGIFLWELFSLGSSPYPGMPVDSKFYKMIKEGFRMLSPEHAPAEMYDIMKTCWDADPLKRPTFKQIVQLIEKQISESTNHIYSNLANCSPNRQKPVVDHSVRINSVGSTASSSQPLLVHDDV

Chain of CDK4 CCND1 (human) (P11802 whole entry, looked up): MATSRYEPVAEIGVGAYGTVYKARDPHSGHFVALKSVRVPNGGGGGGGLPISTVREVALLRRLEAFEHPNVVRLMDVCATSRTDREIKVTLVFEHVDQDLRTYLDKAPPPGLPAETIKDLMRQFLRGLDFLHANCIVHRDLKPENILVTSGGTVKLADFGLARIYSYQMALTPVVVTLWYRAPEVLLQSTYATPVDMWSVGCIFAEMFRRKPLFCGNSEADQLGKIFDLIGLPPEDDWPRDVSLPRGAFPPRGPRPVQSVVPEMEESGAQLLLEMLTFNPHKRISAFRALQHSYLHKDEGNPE
Chain of CDK4 CCND1 (human) (P24385 whole entry, looked up): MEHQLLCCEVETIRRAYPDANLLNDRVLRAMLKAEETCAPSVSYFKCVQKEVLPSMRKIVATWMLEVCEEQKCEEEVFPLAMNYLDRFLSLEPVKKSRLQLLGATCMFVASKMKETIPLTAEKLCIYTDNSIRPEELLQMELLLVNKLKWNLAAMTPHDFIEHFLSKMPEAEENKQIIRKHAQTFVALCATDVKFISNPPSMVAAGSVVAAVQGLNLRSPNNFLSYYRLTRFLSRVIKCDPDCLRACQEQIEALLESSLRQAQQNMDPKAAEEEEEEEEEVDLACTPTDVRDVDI
Chain of PIK3CA (human), P42336 [H1047Y] (P42336 whole entry H1047Y, looked up): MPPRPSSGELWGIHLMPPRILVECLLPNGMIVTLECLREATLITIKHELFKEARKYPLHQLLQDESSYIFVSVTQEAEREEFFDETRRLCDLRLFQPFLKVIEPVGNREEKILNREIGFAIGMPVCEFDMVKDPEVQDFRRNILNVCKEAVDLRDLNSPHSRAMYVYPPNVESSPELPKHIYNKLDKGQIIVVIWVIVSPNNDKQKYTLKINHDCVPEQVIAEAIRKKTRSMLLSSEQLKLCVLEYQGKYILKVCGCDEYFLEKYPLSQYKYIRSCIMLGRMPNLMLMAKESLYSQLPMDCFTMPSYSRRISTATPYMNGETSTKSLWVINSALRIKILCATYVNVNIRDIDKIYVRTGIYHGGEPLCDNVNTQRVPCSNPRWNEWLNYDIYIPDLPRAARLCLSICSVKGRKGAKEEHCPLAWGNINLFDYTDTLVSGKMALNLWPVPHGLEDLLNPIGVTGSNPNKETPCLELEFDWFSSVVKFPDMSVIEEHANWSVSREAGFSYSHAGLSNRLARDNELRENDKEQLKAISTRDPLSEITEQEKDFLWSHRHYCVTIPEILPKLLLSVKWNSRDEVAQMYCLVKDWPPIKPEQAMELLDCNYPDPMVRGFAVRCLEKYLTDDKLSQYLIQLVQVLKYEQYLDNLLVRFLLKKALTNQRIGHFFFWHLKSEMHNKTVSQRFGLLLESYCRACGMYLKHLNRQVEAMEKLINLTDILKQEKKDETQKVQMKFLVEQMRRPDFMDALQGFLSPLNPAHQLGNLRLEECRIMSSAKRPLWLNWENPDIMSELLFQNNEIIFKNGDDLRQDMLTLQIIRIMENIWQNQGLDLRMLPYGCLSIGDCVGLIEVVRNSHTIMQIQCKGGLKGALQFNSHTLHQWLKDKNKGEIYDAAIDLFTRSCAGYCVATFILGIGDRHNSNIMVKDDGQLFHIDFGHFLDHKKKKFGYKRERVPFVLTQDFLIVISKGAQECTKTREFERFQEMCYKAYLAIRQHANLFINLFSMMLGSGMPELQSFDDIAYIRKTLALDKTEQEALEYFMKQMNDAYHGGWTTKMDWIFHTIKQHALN
Chain of RPS6KB1 (human) (P23443 whole entry, looked up): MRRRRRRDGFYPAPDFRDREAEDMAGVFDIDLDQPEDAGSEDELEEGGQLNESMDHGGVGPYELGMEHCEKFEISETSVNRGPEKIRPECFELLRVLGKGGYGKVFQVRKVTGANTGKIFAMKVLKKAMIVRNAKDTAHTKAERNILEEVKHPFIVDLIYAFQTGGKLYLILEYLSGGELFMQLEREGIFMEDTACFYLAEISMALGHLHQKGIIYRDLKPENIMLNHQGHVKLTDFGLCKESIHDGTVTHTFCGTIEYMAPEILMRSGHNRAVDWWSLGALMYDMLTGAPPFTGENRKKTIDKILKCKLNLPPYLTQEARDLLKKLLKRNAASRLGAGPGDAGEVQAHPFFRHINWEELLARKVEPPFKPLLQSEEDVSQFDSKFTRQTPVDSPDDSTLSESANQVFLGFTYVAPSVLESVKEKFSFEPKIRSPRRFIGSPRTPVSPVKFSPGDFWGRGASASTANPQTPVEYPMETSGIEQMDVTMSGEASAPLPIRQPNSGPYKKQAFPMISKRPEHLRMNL
Chain of NIM1 (human) (Q8IY84 whole entry, looked up): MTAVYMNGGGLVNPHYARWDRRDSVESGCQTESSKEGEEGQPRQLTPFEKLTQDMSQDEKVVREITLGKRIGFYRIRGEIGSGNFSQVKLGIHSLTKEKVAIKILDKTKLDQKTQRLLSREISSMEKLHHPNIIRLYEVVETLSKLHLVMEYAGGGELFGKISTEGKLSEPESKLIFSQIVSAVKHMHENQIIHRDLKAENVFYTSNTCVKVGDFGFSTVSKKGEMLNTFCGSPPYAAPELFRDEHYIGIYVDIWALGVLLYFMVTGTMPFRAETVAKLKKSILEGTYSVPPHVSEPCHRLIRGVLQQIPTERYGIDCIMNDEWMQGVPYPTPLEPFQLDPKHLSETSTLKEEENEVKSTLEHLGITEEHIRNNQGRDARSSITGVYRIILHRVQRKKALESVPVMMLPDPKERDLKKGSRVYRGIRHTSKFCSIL
Chain of KIT (human) (P10721 whole entry, looked up): as the sequence (P10721 whole entry V559D/T670I, looked up) above, with D559V, I670T counted along it
Chain of CDKL3 (human) (Q8IVW4 whole entry, looked up): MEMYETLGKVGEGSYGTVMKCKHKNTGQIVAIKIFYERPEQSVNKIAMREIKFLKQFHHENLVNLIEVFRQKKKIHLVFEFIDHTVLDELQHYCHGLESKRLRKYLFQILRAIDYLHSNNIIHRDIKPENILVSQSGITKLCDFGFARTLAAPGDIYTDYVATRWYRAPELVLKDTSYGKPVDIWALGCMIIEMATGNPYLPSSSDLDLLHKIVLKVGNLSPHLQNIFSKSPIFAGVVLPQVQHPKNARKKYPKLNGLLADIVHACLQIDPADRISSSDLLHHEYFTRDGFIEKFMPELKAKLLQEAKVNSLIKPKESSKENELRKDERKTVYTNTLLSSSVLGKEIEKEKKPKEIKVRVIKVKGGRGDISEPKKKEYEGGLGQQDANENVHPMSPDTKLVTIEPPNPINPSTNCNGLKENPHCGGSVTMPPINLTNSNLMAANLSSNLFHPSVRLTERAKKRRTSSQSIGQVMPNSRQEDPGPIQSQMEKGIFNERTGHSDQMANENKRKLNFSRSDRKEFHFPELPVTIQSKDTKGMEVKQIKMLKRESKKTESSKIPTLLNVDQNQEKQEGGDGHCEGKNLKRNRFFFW
Chain of PIK3CA (human), P42336 [Q546K] (P42336 whole entry Q546K, looked up): as the sequence (P42336 whole entry H1047Y, looked up) above, with Q546K, Y1047H counted along it
Chain of PIK3CA (human), P42336 [C420R] (P42336 whole entry C420R, looked up): as the sequence (P42336 whole entry H1047Y, looked up) above, with C420R, Y1047H counted along it
Chain of IRAK4 (human) (Q9NWZ3 whole entry, looked up): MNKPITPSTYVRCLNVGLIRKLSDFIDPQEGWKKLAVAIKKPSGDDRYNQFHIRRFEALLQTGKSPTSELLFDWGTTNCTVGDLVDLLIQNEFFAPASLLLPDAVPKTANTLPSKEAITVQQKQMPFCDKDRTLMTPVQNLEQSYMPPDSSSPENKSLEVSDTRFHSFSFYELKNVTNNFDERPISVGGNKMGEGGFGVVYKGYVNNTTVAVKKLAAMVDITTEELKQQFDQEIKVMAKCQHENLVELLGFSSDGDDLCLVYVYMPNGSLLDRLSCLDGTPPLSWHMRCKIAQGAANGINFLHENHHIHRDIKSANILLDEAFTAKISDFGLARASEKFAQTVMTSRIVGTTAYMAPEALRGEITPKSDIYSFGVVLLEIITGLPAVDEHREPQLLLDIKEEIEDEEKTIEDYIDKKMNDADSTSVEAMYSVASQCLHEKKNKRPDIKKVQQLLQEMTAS
Chain of PIK3CA (human), P42336 [I800L] (P42336 whole entry I800L, looked up): as the sequence (P42336 whole entry H1047Y, looked up) above, with I800L, Y1047H counted along it

SMILES | kinase still bound, per cent of control [2] | kinase still bound, per cent of control [3] | kinase still bound, per cent of control [4] | kinase still bound, per cent of control [5] | kinase still bound, per cent of control [6] | kinase still bound, per cent of control [7] | kinase still bound, per cent of control [8] | kinase still bound, per cent of control [10] | kinase still bound, per cent of control [12] | kinase still bound, per cent of control [13] | kinase still bound, per cent of control [14] | kinase still bound, per cent of control [15] | kinase still bound, per cent of control [16] | kinase still bound, per cent of control [18] | kinase still bound, per cent of control [19] | kinase still bound, per cent of control [20] | kinase still bound, per cent of control [21] | kinase still bound, per cent of control [22] | kinase still bound, per cent of control [23] | kinase still bound, per cent of control [24] | other results
O=C(O)c1ccc(Nc2ncc3c(n2)-c2ccc(Cl)cc2C(c2c(F)cccc2F)=NC3)cc1 | 28% | 100% | 98% | 100% | 100% | 100% | 52% | 28% | 31% | 100% | 78% | 80% | 82% | 66% | 100% | 94% | 67% | 27% | 84% | 14% | kinase still bound, per cent of control [1]: 100%; kinase still bound, per cent of control [9]: 28%; kinase still bound, per cent of control [11]: 68%; kinase still bound, per cent of control [17]: 100%; kinase still bound, per cent of control [25]: 26%; kinase still bound, per cent of control [26]: 96%; kinase still bound, per cent of control [27]: 29%; kinase still bound, per cent of control [28]: 100%; kinase still bound, per cent of control [29]: 54%; kinase still bound, per cent of control [30]: 100%; kinase still bound, per cent of control [31]: 100%; kinase still bound, per cent of control [32]: 54%; kinase still bound, per cent of control [33]: 100%; kinase still bound, per cent of control [34]: 100%
Cc1ccc2nc(NCCN)c3ncc(C)n3c2c1 | 100% | 4.7% | 58% | 98% | 46% | 100% | 39% | 100% | 100% | 100% | 100% | 96% | 100% | 100% | 100% | 100% | 52% | 26% | 100% | 38% | kinase still bound, per cent of control [1]: 95%; kinase still bound, per cent of control [35]: 100%; kinase still bound, per cent of control [36]: 8.8%; kinase still bound, per cent of control [9]: 100%; kinase still bound, per cent of control [37]: 100%; kinase still bound, per cent of control [38]: 100%; kinase still bound, per cent of control [11]: 92%; kinase still bound, per cent of control [39]: 37%; kinase still bound, per cent of control [40]: 39%; kinase still bound, per cent of control [25]: 100%; kinase still bound, per cent of control [26]: 0%; kinase still bound, per cent of control [27]: 100%; kinase still bound, per cent of control [28]: 88%; kinase still bound, per cent of control [29]: 96%; kinase still bound, per cent of control [30]: 100%; kinase still bound, per cent of control [31]: 100%; kinase still bound, per cent of control [32]: 100%; kinase still bound, per cent of control [34]: 100%
CCCS(=O)(=O)Nc1ccc(F)c(C(=O)c2c[nH]c3ncc(-c4ccc(Cl)cc4)cc23)c1F | 93% | 100% | 52% | 100% | 100% | 97% | 100% | 78% | 93% | 86% | 100% | 0.15% | 100% | 95% | 100% | 95% | 100% | 88% | 93% | 86% | kinase still bound, per cent of control [1]: 0%; kinase still bound, per cent of control [36]: 100%; kinase still bound, per cent of control [37]: 50%; kinase still bound, per cent of control [39]: 0.15%; kinase still bound, per cent of control [40]: 60%; kinase still bound, per cent of control [25]: 100%; kinase still bound, per cent of control [26]: 78%; kinase still bound, per cent of control [27]: 97%; kinase still bound, per cent of control [28]: 100%; kinase still bound, per cent of control [29]: 86%; kinase still bound, per cent of control [30]: 92%; kinase still bound, per cent of control [31]: 71%; kinase still bound, per cent of control [32]: 100%; kinase still bound, per cent of control [33]: 100%; kinase still bound, per cent of control [34]: 100%
C=CC(=O)Nc1cccc(Nc2nc(N[C@H]3CC[C@H](N(C)C)CC3)nc3c2ncn3C(C)C)c1 | 35% | 40% | 40% | 100% | 100% | 100% | 20% | 90% | 8.7% | 2.5% | 100% | 59% | 66% | 100% | 66% | 33% | 89% | 90% | 100% | 100% | kinase still bound, per cent of control [35]: 100%; kinase still bound, per cent of control [36]: 58%; kinase still bound, per cent of control [9]: 88%; kinase still bound, per cent of control [37]: 98%; kinase still bound, per cent of control [38]: 100%; kinase still bound, per cent of control [11]: 1.2%; kinase still bound, per cent of control [39]: 52%; kinase still bound, per cent of control [40]: 86%; kinase still bound, per cent of control [17]: 100%; kinase still bound, per cent of control [25]: 66%; kinase still bound, per cent of control [26]: 82%; kinase still bound, per cent of control [27]: 52%; kinase still bound, per cent of control [28]: 93%; kinase still bound, per cent of control [29]: 87%; kinase still bound, per cent of control [30]: 20%; kinase still bound, per cent of control [31]: 85%; kinase still bound, per cent of control [32]: 89%; kinase still bound, per cent of control [33]: 19%; kinase still bound, per cent of control [34]: 84%
